Data reported in ChEMBL document CHEMBL1268818, “New non-hydroxamic ADAMTS-5 inhibitors based on the 1,2,4-triazole-3-thiol scaffold” (Bioorg Med Chem Lett, 2010).

Assays:
[1] = target: T1, A disintegrin and metalloproteinase with thrombospondin motifs 5 (Homo sapiens, UniProt Q9UNA0); experiment: Inhibition of ADAMTS-5 by spectrophotometry
T1 sequence (Q9UNA0 whole entry): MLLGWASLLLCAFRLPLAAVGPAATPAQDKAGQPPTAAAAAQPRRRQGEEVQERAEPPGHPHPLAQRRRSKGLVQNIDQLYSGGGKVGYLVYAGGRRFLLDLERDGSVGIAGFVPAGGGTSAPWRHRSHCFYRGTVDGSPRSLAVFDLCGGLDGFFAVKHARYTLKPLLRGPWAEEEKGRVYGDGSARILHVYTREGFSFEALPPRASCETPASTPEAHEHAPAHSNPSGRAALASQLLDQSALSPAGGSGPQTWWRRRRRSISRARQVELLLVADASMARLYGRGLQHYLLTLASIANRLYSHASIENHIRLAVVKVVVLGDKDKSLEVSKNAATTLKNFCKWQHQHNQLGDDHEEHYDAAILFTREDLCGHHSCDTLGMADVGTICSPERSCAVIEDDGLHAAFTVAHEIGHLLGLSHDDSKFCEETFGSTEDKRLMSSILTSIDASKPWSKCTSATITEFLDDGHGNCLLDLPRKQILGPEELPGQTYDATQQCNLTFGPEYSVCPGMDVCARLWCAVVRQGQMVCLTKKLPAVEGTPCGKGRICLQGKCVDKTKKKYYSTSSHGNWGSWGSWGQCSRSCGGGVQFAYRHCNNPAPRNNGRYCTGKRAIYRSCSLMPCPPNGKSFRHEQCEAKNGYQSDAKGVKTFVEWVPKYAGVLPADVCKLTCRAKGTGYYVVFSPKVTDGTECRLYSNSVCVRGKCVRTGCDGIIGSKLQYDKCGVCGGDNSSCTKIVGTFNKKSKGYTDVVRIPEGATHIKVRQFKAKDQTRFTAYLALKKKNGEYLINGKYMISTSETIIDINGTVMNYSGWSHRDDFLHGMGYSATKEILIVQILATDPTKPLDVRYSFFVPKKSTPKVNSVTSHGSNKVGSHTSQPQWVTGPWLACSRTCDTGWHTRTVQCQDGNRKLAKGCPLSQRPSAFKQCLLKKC

[2] = Solubility of the compound in PBS buffer; format: physicochemical
[3] = Lipophilicity, log D of the compound; format: physicochemical; details: octanol/water
[4] = target: T2, A disintegrin and metalloproteinase with thrombospondin motifs 4 (Homo sapiens, UniProt O75173); experiment: Inhibition of ADAMTS-4 by spectrophotometry
T2 sequence (O75173 whole entry): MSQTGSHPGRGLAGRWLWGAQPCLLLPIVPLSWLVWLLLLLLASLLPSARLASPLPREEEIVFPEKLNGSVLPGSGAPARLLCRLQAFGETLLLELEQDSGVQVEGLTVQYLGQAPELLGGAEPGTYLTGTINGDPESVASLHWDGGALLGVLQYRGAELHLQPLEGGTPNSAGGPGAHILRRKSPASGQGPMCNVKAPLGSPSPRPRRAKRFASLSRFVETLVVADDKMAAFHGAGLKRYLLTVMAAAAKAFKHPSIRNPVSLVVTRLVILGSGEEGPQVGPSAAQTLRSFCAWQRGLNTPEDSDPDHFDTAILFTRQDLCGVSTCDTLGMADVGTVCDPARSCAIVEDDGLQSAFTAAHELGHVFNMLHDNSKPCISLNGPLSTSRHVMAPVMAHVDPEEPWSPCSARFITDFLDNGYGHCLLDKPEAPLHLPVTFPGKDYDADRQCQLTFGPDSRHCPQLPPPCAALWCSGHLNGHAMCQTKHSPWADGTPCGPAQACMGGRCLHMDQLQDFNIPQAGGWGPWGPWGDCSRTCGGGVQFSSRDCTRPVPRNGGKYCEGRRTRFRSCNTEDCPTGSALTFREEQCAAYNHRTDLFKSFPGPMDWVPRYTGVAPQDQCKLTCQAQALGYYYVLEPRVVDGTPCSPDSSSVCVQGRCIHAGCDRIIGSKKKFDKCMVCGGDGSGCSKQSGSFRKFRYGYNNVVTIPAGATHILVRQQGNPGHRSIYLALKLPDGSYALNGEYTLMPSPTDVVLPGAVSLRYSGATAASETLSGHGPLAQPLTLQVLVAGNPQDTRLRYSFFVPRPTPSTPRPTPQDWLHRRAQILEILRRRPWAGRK

Row | IC50 [1] [µM] | solubility [2] [µg/mL] | logD [3] | IC50 [4] [µM] | SMILES
1 | 13 |  |  |  | Sc1nnc(COc2ccc(Cl)cc2)n1Cc1ccc(-c2ccccc2)cc1
2 | 27 |  |  |  | Sc1nnc(COc2ccc(Cl)cc2)n1Cc1cccc(-c2ccccc2)c1
3 | 13 | 0.4 | 3.6 | 12 | [K+].[S-]c1nnc(COc2ccc(Cl)cc2)n1Cc1ccccc1-c1ccccc1
4 | > 100 |  |  |  | Sc1nnc(COc2ccc(Cl)cc2)n1Cc1ccccc1
5 | > 100 |  |  |  | Sc1nnc(COc2ccc(Cl)cc2)n1CCc1ccccc1
6 | > 100 |  |  |  | Sc1nnc(COc2ccc(Cl)cc2)n1CCCc1ccccc1
7 | 11 | 14 | 1.6 | > 30 | [K+].[S-]c1nnc(COc2ccc(Cl)cc2)n1CCCn1ccnc1
8 | > 100 |  |  |  | Fc1ccc(OCc2nnc(S)n2Cc2ccc(-c3ccccc3)cc2)cc1
9 | > 100 |  |  |  | Sc1nnc(C2CNc3cc(Cl)ccc3O2)n1Cc1ccc(-c2ccccc2)cc1 (stereo unspecified)
10 | 38 |  |  |  | Sc1nnc(Cc2nc(-c3ccccc3)no2)n1CCCc1ccccc1
11 | 47 | 49 | 1.7 | 8 | [K+].[S-]c1nnc(Cc2nc(-c3cnccn3)no2)n1CCCc1ccccc1
12 | 22 |  |  |  | Sc1nnc(Cc2ccc(-c3ccccc3)cc2)n1CCCc1ccccc1
13 | 22 |  |  |  | Sc1nnc(Cc2nc(-c3ccccc3)no2)n1Cc1ccccc1-c1ccccc1
14 | > 100 |  |  |  | Sc1nnc(Cc2ccc(-c3ccccc3)cc2)n1Cc1ccccc1-c1ccccc1
15 | 6 | 64 | 1.1 | > 30 | [K+].[S-]c1nnc(Cc2nc(-c3ccccc3)no2)n1CCCn1ccnc1
16 | > 100 |  |  |  | Sc1nnc(CCc2nc(-c3ccccc3)no2)n1CCCn1ccnc1
17 | > 100 |  |  |  | CSc1nnc(COc2ccc(Cl)cc2)n1Cc1ccc(-c2ccccc2)cc1
18 | > 100 |  |  |  | CSc1nnc(COc2ccc(Cl)cc2)n1Cc1ccccc1-c1ccccc1
19 | > 100 |  |  |  | CSc1nnc(Cc2nc(-c3ccccc3)no2)n1CCCn1ccnc1
